Assay results: PubChem BioAssay (NCI)
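All cell lines were grown in 96-well plates and treated with compound for 48 hours. GI50: concentration for 50% inhibition of growth. TGI denotes the concentration required for complete inhibition of growth.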

What was measured:
Assay in all cases: NCI tumour cell line growth inhibition, 48 h
[1] = tested on: NCI/ADR-RES ovarian
[2] = tested on: OVCAR-4 ovarian
[3] = tested on: MOLT-4 leukemia
[4] = tested on: SNB-19 CNS
[5] = tested on: EKVX NSCLC
[6] = tested on: LOX IMVI melanoma
[7] = tested on: MDA-MB-435
[8] = tested on: NCI-H226 lung
[9] = tested on: HT29 colon
[10] = tested on: SN12K1 renal
[11] = tested on: HCT-116 colon
[12] = tested on: P388/ADR leukemia
[13] = tested on: XF 498 CNS
[14] = tested on: UO-31 renal
[15] = tested on: M14 melanoma
[16] = tested on: KM20L2 colon
[17] = tested on: NCI-H522 lung
[18] = tested on: OVCAR-3 ovarian
[19] = tested on: A549 NSCLC
[20] = tested on: SK-MEL-28 melanoma
[21] = tested on: NCI-H460 lung
[22] = tested on: SNB-78 CNS
[23] = tested on: OVCAR-8 ovarian
[24] = tested on: IGROV1 ovarian
[25] = tested on: MDA-MB-231 breast
[26] = tested on: BT-549 breast
[27] = tested on: HL-60(TB) leukemia
[28] = tested on: ACHN renal
[29] = tested on: SF-268 CNS
[30] = tested on: U251 CNS
[31] = tested on: HCT-15 colon
[32] = tested on: HOP-18 NSCLC
[33] = tested on: SF-295 CNS
[34] = tested on: DLD-1 colon
[35] = tested on: A498 renal
[36] = tested on: SW-620 colon
[37] = tested on: DU-145 prostate
[38] = tested on: 786-0 renal
[39] = tested on: HOP-62 NSCLC
[40] = tested on: M19-MEL melanoma
[41] = tested on: MDA-N
[42] = tested on: SF-539 CNS
[43] = tested on: DMS 273 small cell lung
[44] = tested on: SK-OV-3 ovarian
[45] = tested on: SN12C renal
[46] = tested on: KM12 colon
[47] = tested on: TK-10 renal
[48] = tested on: RXF 393 renal
[49] = tested on: UACC-62 melanoma
[50] = tested on: NCI-H23 lung
[51] = tested on: P388 leukemia
[52] = tested on: CAKI-1 renal
[53] = tested on: K-562 leukemia
[54] = tested on: MALME-3M melanoma
[55] = tested on: UACC-257 melanoma
[56] = tested on: SK-MEL-2 melanoma
[57] = tested on: PC-3 prostate
[58] = tested on: HS 578T breast
[59] = tested on: SK-MEL-5 melanoma
[60] = tested on: RPMI-8226 leukemia
[61] = tested on: DMS 114 small cell lung
[62] = tested on: MCF7 breast
[63] = tested on: COLO 205 colon
[64] = tested on: T-47D breast
[65] = tested on: HOP-92 NSCLC
[66] = tested on: OVCAR-5 ovarian
[67] = tested on: HCC-2998 colon
[68] = tested on: SNB-75 CNS
[69] = tested on: CCRF-CEM leukemia

Structure (SMILES): COC(=O)C12OCC34C(CC5C(C)=C(O)C(=O)CC5(C)C3C(O)C1O)OC(=O)C(OC(=O)C=C(C)C)C24 (stereo not given)
- GI50 [1]: 4.34 µM
- GI50 [2]: > 500 µM
- TGI [3]: > 500 µM
- GI50 [4]: < 0.215 µM
- TGI [4]: > 500 µM
- TGI [5]: > 500 µM
- TGI [6]: > 500 µM
- TGI [7]: 0.905 µM
- GI50 [8]: < 0.215 µM
- GI50 [9]: < 0.215 µM
- TGI [9]: > 500 µM
- TGI [10]: > 500 µM
- GI50 [11]: 0.226 µM
- TGI [12]: > 500 µM
- TGI [13]: > 476 µM
- GI50 [14]: 0.576 µM
- TGI [15]: 0.359 µM
- TGI [16]: > 500 µM
- GI50 [17]: < 0.215 µM
- TGI [18]: > 500 µM
- TGI [19]: > 500 µM
- GI50 [20]: < 0.215 µM
- TGI [21]: > 316 µM
- TGI [22]: > 500 µM
- GI50 [23]: 0.222 µM
- TGI [24]: > 500 µM
- TGI [25]: 0.0905 µM
- TGI [26]: 0.726 µM
- TGI [27]: > 500 µM
- TGI [28]: 0.463 µM
- GI50 [29]: 0.344 µM
- TGI [29]: > 500 µM
- TGI [30]: > 500 µM
- GI50 [31]: 0.456 µM
- TGI [32]: > 500 µM
- GI50 [33]: 0.232 µM
- TGI [34]: > 79.3 µM
- TGI [35]: > 500 µM
- GI50 [36]: 0.231 µM
- TGI [36]: > 500 µM
- TGI [37]: > 8.12 µM
- TGI [38]: 0.689 µM
- TGI [39]: > 500 µM
- TGI [40]: > 500 µM
- TGI [41]: 0.481 µM
- TGI [42]: > 500 µM
- TGI [43]: > 500 µM
- TGI [44]: > 500 µM
- GI50 [45]: 0.32 µM
- GI50 [46]: < 0.215 µM
- TGI [46]: > 500 µM
- TGI [47]: 0.582 µM
- GI50 [48]: 0.231 µM
- GI50 [49]: < 0.215 µM
- GI50 [50]: < 0.215 µM
- TGI [51]: > 500 µM
- GI50 [52]: 0.899 µM
- GI50 [53]: < 0.215 µM
- GI50 [54]: < 0.215 µM
- GI50 [55]: 0.231 µM
- GI50 [56]: < 0.215 µM
- TGI [57]: 0.631 µM
- TGI [58]: 2.03 µM
- GI50 [59]: < 0.215 µM
- TGI [60]: > 500 µM
- TGI [61]: > 460 µM
- TGI [62]: > 500 µM
- TGI [63]: > 500 µM
- TGI [64]: 0.0789 µM
- TGI [65]: 494 µM
- GI50 [66]: 0.245 µM
- GI50 [67]: < 0.156 µM

Structure (SMILES): COC(=O)C1C(O)C(C)C(O)C(C)(O)/C=C/C=C(C)C(=O)Nc2c(C)c(OC(C)=O)c3c(c2O)C(=O)C(C)=C2OCOC(=C23)C(C)=CC(C)(O)C(O)C(C)C1OC(C)=O (stereo not given)
- TGI [1]: > 100 µM
- TGI [2]: > 100 µM
- TGI [3]: 54.8 µM
- TGI [4]: > 100 µM
- TGI [5]: 67.8 µM
- TGI [6]: 41.2 µM
- GI50 [8]: 50.7 µM
- TGI [8]: > 100 µM
- TGI [9]: > 92.7 µM
- TGI [10]: 60.8 µM
- GI50 [11]: 18.1 µM
- TGI [11]: 34.5 µM
- TGI [12]: > 83.1 µM
- TGI [14]: > 100 µM
- TGI [16]: > 88.6 µM
- TGI [17]: 56 µM
- GI50 [18]: 22.4 µM
- TGI [18]: 63.1 µM
- TGI [19]: > 100 µM
- GI50 [20]: 33.4 µM
- TGI [20]: 59.7 µM
- GI50 [21]: 19.9 µM
- TGI [21]: 38.6 µM
- GI50 [22]: 37.9 µM
- TGI [22]: 91.2 µM
- GI50 [23]: 42.9 µM
- TGI [23]: 92.1 µM
- TGI [24]: 80.5 µM
- TGI [27]: 49.8 µM
- GI50 [29]: 39.9 µM
- TGI [29]: 75.8 µM
- TGI [30]: > 100 µM
- TGI [31]: 69.6 µM
- TGI [32]: > 100 µM
- TGI [33]: > 100 µM
- TGI [34]: 43.3 µM
- TGI [35]: > 56.2 µM
- GI50 [36]: 31.6 µM
- TGI [36]: 63.3 µM
- TGI [39]: > 100 µM
- TGI [40]: 31.8 µM
- TGI [42]: 76.4 µM
- TGI [43]: > 100 µM
- TGI [44]: > 100 µM
- TGI [45]: 47.9 µM
- GI50 [46]: 19.2 µM
- TGI [46]: 35.2 µM
- TGI [68]: > 63.1 µM
- TGI [48]: 33.4 µM
- TGI [49]: 47.7 µM
- TGI [50]: 52.7 µM
- TGI [51]: 52.2 µM
- GI50 [69]: 28.1 µM
- TGI [69]: 55.8 µM
- GI50 [52]: 37.1 µM
- TGI [52]: 86.9 µM
- GI50 [53]: 30.7 µM
- TGI [53]: 60.5 µM
- GI50 [54]: 22.6 µM
- TGI [54]: 43.8 µM
- GI50 [55]: 20.1 µM
- TGI [55]: 44.8 µM
- TGI [56]: 39.7 µM
- TGI [59]: > 78.5 µM
- GI50 [60]: 27.1 µM
- TGI [60]: 54.9 µM
- TGI [61]: 25.4 µM
- TGI [62]: 34.5 µM
- TGI [63]: 39.3 µM
- GI50 [65]: 15.9 µM
- TGI [65]: 35.1 µM
- TGI [66]: > 100 µM
- TGI [67]: 85.5 µM
